Literature values, collected in patent publication US20240041762A1 (Zambon S.p.A., priority 2020, published 2024).

Assays:
invasive aspergillosis = settings: in vivo

ELF exposure as fraction of the plasma concentration (healthy volunteers) | concentration in the alveolar cells with respect to the plasma concentration (healthy volunteers) | concentrations in bronchoalveolar lavage fluid and lung tissue, times lower than plasma (other cases) [times] | SMILES | activity against invasive aspergillosis (invasive aspergillosis)
approximately ⅓ | more than double | 10 | CCC(C)n1ncn(-c2ccc(N3CCN(c4ccc(OCC5COC(Cn6cncn6)(c6ccc(Cl)cc6Cl)O5)cc4)CC3)cc2)c1=O (stereo not shown) [itraconazole] | 
 |  |  | OC(Cn1cncn1)(Cn1cncn1)c1ccc(F)cc1F [Fluconazole] | not active
